From patent US20040191240A1, “Composition and method for nerve regeneration” (priority 2003, published 2004)
Entries after “also recorded” stand apart in the source; their conditions may differ. Where no end group is shown, it is not given here.

What was measured:
[1] = tested on: cerebellar granule neurons from P7 rats; assay: Neurite outgrowth (growth) assay, cerebellar neurons; format: cell-based, rat; conditions: data not shown
[2] = tested on: cerebellar granule neurons; assay: Ca2+ fluorescence imaging (Oregon-green 488BAPTA-1 and Fura Red); format: cell-based; conditions: p7 rat cerebellar granule neurons; inhibitor or antibody with MAG
DRG neurons = assay: Neurite outgrowth assay, adult DRG neurons; format: cell-based, mouse; conditions: peptide 100 nM
mice = assay: Spinal cord injury, similar experiments for mice (Example 2-7); format: in vivo, mouse
Protocol: Similar experiments were carried out for mice as described above.

cerebellar neurons = assay: Neurite outgrowth assay, post-natal cerebellar neurons; format: cell-based, mouse
RhoA = assay: Affinity-precipitation of GTP-RhoA in cerebellar neurons; format: cell-based, mouse; conditions: TAT-Pep5 1 μM; Nogo peptide 4 μM, MAG-Fc 25 μg/ml; 30 min
Protocol: 293 cells were transfected with pcDNA3 vectors containing wild type RhoA whose NH2-terminus is tagged with HA (Yamashita, T. et al., Neuron. 24:585-593, 1999) and/or full-length human p75 by lipofection using Lipofectamine 2000 (Gibco BRL). Cerebellar neurons from P9 mice were isolated as described previously (Cai et al, Neuron, 22:89-101, 1999). Cells were lysed in 50 mM Tris (pH 7.5), 1% Triton X-100, 0.5% sodium deoxycholate, 0.1% SDS, 500 mM NaCl, 10 mM MgCl2, with leupeptin and aprotinin, each at 10 μg/ml. Cell lysates were clarified by centrifugation at 13,000×g at 4° C. for 10 min, and the supernatants were incubated with the 20 μg of GST-Rho binding domain of Rhotekin beads (Upstate Biotech.) at 4° C. for 45 min. The beads were washed 4 times with washing buffer (50 mM Tris (pH 7.5) containing 1% Triton X-100, 150 mM NaCl, 10 mM MgCl2, 10 μg/ml each of leupeptin and aprotinin). Bound Rho proteins were detected by Western blotting using a monoclonal antibody against RhoA (Santa Cruz Biotechnology).
Amino-terminally FLAG-tagged human p75 or the deletion mutants of p75 ICD were cloned into pcDNA3.1 expression plasmid, and were transfected with 293T cells. […] Bound Rho proteins were detected by Western blotting using a monoclonal antibody against RhoA (Santa Cruz Biotechnology).

male Wistar rats [3] = assay: Spinal cord injury (dorsal half dissected, ninth thoracic vertebra), agent pumped to the injured site; format: in vivo, rat; conditions: continuous osmotic pump to the injured site; versus control peptide
Protocol: 200 g male Wistar rats were used. After the ninth thoracic vertebrae laminectomy was performed, the dorsal half of the spinal cord was dissected. A continuous osmotic pump was used to continuously administer either TAT(PTD domain)-fused Pep5 (TAT-[…]) (SEQ ID NO. 2) or TAT(PTD domain)-fused control peptide (TAT-[…]) (SEQ ID NO. 15) to the injured site for 6 weeks ([…]). In this case, the tip of a tube connected to the pump was left in the medullary space. After spinal cord injury, the functional recovery was assessed using the BBB score. The animals were observed on day 7, 14, 21, 28, 35, and 42 after injury. These experiments were carried out using techniques described in Fournier A. E., Takizawa, B. T., Strittmatter, S. M., J. Neurosci. 2003, 23, 1416-1423.
200 g male Wistar rats were used. After the ninth thoracic vertebrae laminectomy was performed, the dorsal half of the spinal cord was dissected. A continuous osmotic pump was used to continuously administer either TAT-fused Pep5 or TAT (PTD domain)-fused control peptide to the injured site.

[4] = tested on: Rho kinase fragment (aa 1-543); assay: Rho-kinase kinase assay in vitro (S6 kinase substrate peptide); format: biochemical
male Wistar rats [5] = assay: Spinal cord injury, p21 and TAT-bound p21, BBB score; format: in vivo, rat; conditions: osmotic pump to the injured site for 2 weeks; observed from day 2 for 6 weeks
Protocol: 200 g male Wistar rats were used. After a ninth thoracic vertebrae laminectomy was performed, the dorsal half of the spinal cord was dissected. […] In this case, the tip of a tube connected to the pump was left in the medullary space.
After spinal cord injury, the functional recovery was assessed using the BBB score (Basso-Beattie-Bresnahan (BBB) Locomotor Rating; Basso, D. M., Beattie, M. S., Bresnahan, J. C., J. Neurotrauma 12 (1):1-21 (1995) ). Observation was carried out from day 2 after injury for 6 weeks.

[6] = target: Rho-kinase (GST-CAT; aa 6-553) (Bos taurus, UniProt Q28021); assay: In vitro binding assay of p21 and Rho-kinase; conditions: p21 1 nM
Sequence of Rho-kinase (GST-CAT; aa 6-553) (Q28021 6-553): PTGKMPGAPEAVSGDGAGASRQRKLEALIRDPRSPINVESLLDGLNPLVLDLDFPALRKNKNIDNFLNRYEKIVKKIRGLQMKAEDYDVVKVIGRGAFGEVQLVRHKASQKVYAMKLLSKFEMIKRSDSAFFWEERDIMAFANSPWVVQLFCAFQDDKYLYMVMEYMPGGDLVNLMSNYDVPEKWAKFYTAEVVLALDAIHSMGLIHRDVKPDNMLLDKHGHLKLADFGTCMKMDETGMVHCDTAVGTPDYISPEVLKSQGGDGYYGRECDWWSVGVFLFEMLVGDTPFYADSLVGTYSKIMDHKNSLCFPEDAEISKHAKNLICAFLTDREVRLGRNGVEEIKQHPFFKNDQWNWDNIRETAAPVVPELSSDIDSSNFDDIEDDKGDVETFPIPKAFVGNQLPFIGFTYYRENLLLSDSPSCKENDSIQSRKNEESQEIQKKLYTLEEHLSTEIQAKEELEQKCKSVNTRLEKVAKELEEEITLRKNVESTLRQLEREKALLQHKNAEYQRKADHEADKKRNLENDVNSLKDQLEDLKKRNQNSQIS

With `Cn1c2ccccc2c2c3c(c4c5ccccc5n(CCC#N)c4c21)CNC3=O` [G06976] as the compound, how does the “neurite outgrowth by MAG-Fc or Nogo peptide when another PKC inhibitor was used” value [1] read?
Its value is “Same results”.

Which “effect on Ca2+ elevation induced by MAG” value [2] does the source give for `COc1ccc2c(c1)CC[C@@H]1[C@@H]2CC[C@]2(C)[C@@H](NCCCCCCN3C(=O)C=CC3=O)CC[C@@H]12` [U73122] here?
Its value is “blocked”.

With “TAT-CFFRGGFFNHNPRYC ({TAT}-CFFRGGFFNHNPRYC; cysteine pairing not given here) [TAT-Pep5, Pep5 fused with the amino-terminal 11 amino acid protein transduction domain of HIV TAT]” as the compound, how does the “responsiveness of DRG neurons to MAG (25 μg/ml) and the Nogo peptide (4 μM)” value (DRG neurons) read?
Its value is “abolished their responsiveness”.

What about the “nerve regeneration after spinal cord injury” value (mice) of the same compound?
The value was “nerve regeneration was similarly observed”.

And the “inhibitory effect of MAG (25 μg/ml) and the Nogo peptide (4 μM) on post-natal cerebellar neurons” value (cerebellar neurons)?
The value was “efficiently silenced the inhibitory effect”.

And the “activation of RhoA induced by MAG-Fc or the Nogo peptide” value (RhoA)?
Its value is “inhibited the activation of RhoA; also recorded: completely abolishes these effects”.

And the “nerve regeneration after spinal cord injury” value (male Wistar rats [3])?
Its value is “nerve regeneration was significantly observed”.

For “p21: recombinant full-length p21 (1-164 in SEQ ID NO. 23), cyclin-dependent protein kinase inhibitor”, which “Rho-kinase activity toward S6 kinase substrate peptide” value [4] is on record?
The value was “inhibited the Rho-kinase activity toward S6 kinase substrate peptide in a dose-dependent manner”.

What about the “functional recovery after spinal cord injury (BBB score)” value (male Wistar rats [5]) of the same compound?
The value was “not sufficiently observed”.

What about the “in vitro interaction with the catalytic region of Rho-kinase” value [6] of the same compound?
The value was “bound to each other in vitro”.
